Source: patent US7115658B2 (priority 2002, dated 2006)

The compounds below were run against T1, Recombinant HCV polymerase (Hepatitis C virus genotype 1b, UniProt P26663) (assay: HCV Polymerase Inhibition Assay). Settings: primer/template-directed transcription, 30 minutes at 30° C.; category symbol.
T1 construct: 2.5 pmoles (0.15 μg) HCV polymerase protein
T1 sequence (P26663 2420-3010): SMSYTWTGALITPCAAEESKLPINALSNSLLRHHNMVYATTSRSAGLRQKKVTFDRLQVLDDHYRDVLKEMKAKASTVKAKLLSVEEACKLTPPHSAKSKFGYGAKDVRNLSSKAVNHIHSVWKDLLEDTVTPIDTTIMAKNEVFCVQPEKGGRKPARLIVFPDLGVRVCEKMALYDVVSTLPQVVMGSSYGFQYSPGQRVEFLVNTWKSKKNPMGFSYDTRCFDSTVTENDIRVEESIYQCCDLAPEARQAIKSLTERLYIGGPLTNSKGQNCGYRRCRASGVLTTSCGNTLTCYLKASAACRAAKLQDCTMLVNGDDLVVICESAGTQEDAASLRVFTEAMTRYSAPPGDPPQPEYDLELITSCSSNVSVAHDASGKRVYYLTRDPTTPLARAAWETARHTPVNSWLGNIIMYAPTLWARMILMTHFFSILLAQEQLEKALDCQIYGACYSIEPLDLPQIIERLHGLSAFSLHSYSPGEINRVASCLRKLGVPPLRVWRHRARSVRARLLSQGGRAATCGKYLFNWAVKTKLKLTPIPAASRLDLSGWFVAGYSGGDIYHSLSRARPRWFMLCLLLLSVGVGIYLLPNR
Type: biochemical
Protocol: The above-described compounds were tested for activity with HCV polymerase. Recombinant HCV polymerase was tested for its ability to perform primer/template-directed transcription in assays that contained 30 mM tris-HCl pH 7.2, 10 mM MgCl2, 20 mM NaCl, 1 mM Dithiothreitol (DTT), 0.05% Tween-20, 1% glycerol, 5 pmoles biotin-dG12 (primer), 0.5 pmoles poly(rC)300 (template), 1 μM GTP, 0.1–0.3 uCi α-^32P-GTP, and 2.5 pmoles (0.15 μg) HCV polymerase protein in a final volume of 75 μL. Reactions were initiated by addition of enzyme and incubated 30 minutes at 30° C. Reactions were stopped by addition of 33 mM EDTA, and polynucleotide products were collected by filtration through Diethylaminoethyl (DE) Filtermat papers (Wallac). Unincorporated triphosphate was removed by washing the filters with 5% dibasic sodium phosphate. The filters were counted in a Packard Tri-Lux Microbeta scintillation counter (Packard Bioscience, Meriden, Conn.). Compounds to be tested were added at various concentrations, e.g., 1 μm to 50 μm, from stocks in 10% DMSO-water (final DMSO is 1% in reaction).
IC50 values were estimated from the primary cpm data (collected in triplicate) using the formula: cpm (I)=cpm (no inhibitor)(1−([I]/([I]+IC50))). An IC50 value represents the concentration (in μM) of a compound that provides 50% inhibition of polymerase-directed transcription in the above assay. A percent inhibition value is expressed for a compound where it was impractical to calculate an IC50 value with available data. If the IC50 estimated by the above equation was less than 200 nM, it was recalculated using the following equation, which takes into account the enzyme concentration (30 nM) in the assay: cpm(I)=cpm(no inhibitor)(1−((((I+IC50+30e−9)−sqrt(((I+IC50+30e−9)^2)−4×30e−9×I)))/((2) (30e−9))). Curve fitting was performed using the program KaleidaGraph (Synergy Software, Reading, Pa.).
With COc1cc(CCC2(C3CCCC3)CC(O)=CC(=O)O2)ccc1OCc1ccccc1 (stereo not shown) [Example 20, 6-[2-(4-Benzyloxy-3-methoxy-phenyl)-ethyl]-6-cyclopentyl-4-hydroxy-5,6-dihydro-pyran-2-one] the IC50 was 1 to 10 µM.
In the case of O=C1C=C(O)CC(CC2CCc3ccccc32)(C2CCCC2)O1 (mixture of isomers) [Example 15, 6-Cyclopentyl-4-hydroxy-6-indan-1-ylmethyl-5,6-dihydro-pyran-2-one], the IC50 is reported as over 50 µM.
Work on Cc1noc(COc2ccc(CCC3(C4CCCC4)CC(O)=CC(=O)O3)cc2)n1 (stereo not shown) [Example 48, 6-Cyclopentyl-6-(2-{4-[(3-methyl-1,2,4-oxadiazol-5-yl)methoxy]phenyl}ethyl)4-hydroxy-5,6-dihydro-2H-pyran-2-one] yielded an IC50 of 10 to 50 µM.
Compound CCSc1ccc(CCC2(C3CCCC3)CC(=O)CC(=O)O2)cc1 (stereo not shown) [Example 75, 6-Cyclopentyl-6-[2-(4-ethylsulfanyl-phenyl)-ethyl]-dihydro-pyran-2,4-dione] has an IC50 of 1 to 10 µM.
In the case of COc1ccc(CCC2(C3CCCC3)CC(=O)C(C(C)=O)C(=O)O2)c(OC)c1 (stereo not shown) [Example 166, 3-Acetyl-6-cyclopentyl-6-[2-(2,4-dimethoxy-phenyl)-ethyl]-dihydro-pyran-2,4-dione], the IC50 is reported as 10 to 50 µM.
For CCOc1c(F)cc(CCC2(C3CCCC3)CC(=O)CC(=O)O2)cc1F (stereo not shown) [Example 42], the IC50 was 1 to 10 µM.
With “6-Cyclopentyl-6-[2-(4-methoxy-phenyl)-ethyl]-3-[2-(3-methyl-isoxazol-5-yl)-acetyl]-dihydro-pyran-2,4-dione [Example 165]” the IC50 was 10 to 50 µM.
For CCn1nnnc1SC1=C(O)CC(CCc2ccc(OC)cc2)(C2CCCC2)OC1=O (stereo not shown) [Example 121, 6-Cyclopentyl-3-[(1-ethyl-1H-tetraazol-5-yl)thio]-4-hydroxy-6-[2-(4-methoxyphenyl)ethyl]-5,6-dihydro-2H-pyran-2-one], the IC50 was under 1 µM.
O=C1C=C(O)CC(CCc2ccc(Oc3ccccc3)cc2)(C2CCCC2)O1 (stereo not shown) [Example 47, 6-cyclopentyl-6-[2-(4-phenoxyphenyl)ethyl]-4-hydroxy-5,6-dihydro-2H-pyran-2-one] was tested, and the IC50 was 10 to 50 µM.
For Cc1cc(SC2=C(O)CC(CCc3ccc(O)cc3)(C3CCCCC3)OC2=O)c(C(C)(C)C)cc1OS(=O)(=O)c1ccc(C#N)cc1 (stereo not shown) [Example 139, 4-Cyano-benzenesulfonic acid 5-tert-butyl-4-{6-cyclohexyl-4-hydroxy-6-[2-(4-hydroxy-phenyl)-ethyl]-2-oxo-5,6-dihydro-2H-pyran-3-ylsulfanyl}-2-methyl-phenyl ester], the IC50 was 1 to 10 µM.
For “6-[2-(3-Chloro-4-isopropoxy-phenyl)-ethyl]-6-cyclopentyl-3-(5,7-dimethyl-[1,2,4]triazolo[1,5-a]pyrimidin-2-ylsulfanyl)-4-hydroxy-5,6-dihydro-pyran-2-one [Example 129]”, the IC50 was under 1 µM.
CC(C)(C#N)c1cccc(CCC2(C3CCCC3)CC(=O)CC(=O)O2)c1 (stereo not shown) [Example 13, 2-{3-[2-(2-Cyclopentyl-4,6-dioxo-tetrahydro-pyran-2-yl)-ethyl]-phenyl}-2-methyl-propionitrile] showed an IC50 of 1 to 10 µM.
CC1(c2ccc(CCC3(C4CCCC4)CC(=O)CC(=O)O3)cc2Cl)CC(=O)CC(=O)O1 (stereo not shown) [Example 82, 6-Cyclopentyl-[6-(2-Chloro-phenyl)-6-methyl-dihydro-pyran-2,4-dione]-dihydro-pyran-2,4-dione] was tested, and the IC50 was under 1 µM.
Compound Cc1cc(C)n2nc(SC3=C(O)CC(CCc4ccc(OCc5ccccc5)cc4)(C4CCCC4)OC3=O)nc2n1 (stereo not shown) [Example 122, 6-{2-[4-(Benzyloxy)phenyl]ethyl}-6-cyclopentyl-3-[(5,7-dimethyl[1,2,4]triazolo[1,5-a]pyrimidin-2-yl)thio]-4-hydroxy-5,6-dihydro-2H-pyran-2-one] has an IC50 of under 1 µM.
Compound O=C1CC(CCc2ccccc2)(C2CCCC2)OC(=O)C1Cc1ccccc1 (stereo not shown) [Example 88, 3-benzyl-6-cyclopentyl-6-(2-phenylethyl)dihydro-2H-pyran-2,4(3H)-dione] has an IC50 of 10 to 50 µM.
Work on O=C(Cc1cccnc1)C1C(=O)CC(CCc2cccc(Cl)c2)(C2CCCC2)OC1=O (stereo not shown) [Example 174, 6-[2-(3-Chloro-phenyl)-ethyl]-6-cyclopentyl-3-(2-pyridin-3-yl-acetyl)-dihydro-pyran-2,4-dione] yielded an IC50 of 1 to 10 µM.
In the case of COc1cc(F)c(CCC2(C3CCCC3)CC(=O)CC(=O)O2)cc1F (stereo not shown) [Example 74, 6-Cyclopentyl-6-[2-(2,5-difluoro-4-methoxy-phenyl)-ethyl]-dihydro-pyran-2,4-dione], the IC50 is reported as 1 to 10 µM.
O=C1OC(CCc2ccc(OCc3ccccc3)cc2)(C2CCCC2)CC(O)=C1Sc1nc(O)c2cc[nH]c2n1 (stereo not shown) [Example 123, 6-{2-[4-(Benzyloxy)phenyl]ethyl}-6-cyclopentyl-4-hydroxy-3-[(4-hydroxy-7H-pyrrolo[2,3-d]pyrimidin-2-yl)thio]-5,6-dihydro-2H-pyran-2-one] gave an IC50 of under 1 µM.
Compound O=C1CC(=O)OC(CCc2ccc(F)c(Cl)c2)(C2CCCC2)C1 (stereo not shown) [Example 31, 6-[2-(3-Chloro-4-fluoro-phenyl)-ethyl]-6-cyclopentyl-dihydro-pyran-2,4-dione] has an IC50 of 1 to 10 µM.
For Cc1cc(SC2=C(O)CC(CCc3ccc(O)cc3)(C3CCCC3)OC2=O)c(C(C)(C)C)cc1N (stereo not shown) [Example 136, 3-(4-Amino-2-tert-butyl-5-methyl-phenylsulfanyl)-6-cyclopentyl-4-hydroxy-6-[2-(4-hydroxy-phenyl)-ethyl]-5,6-dihydro-pyran-2-one], the IC50 was under 1 µM.
With COc1cc(OC)c(CCC2(C3CCCC3)CC(O)=C(SC3=NCCCN3)C(=O)O2)cc1Cl (stereo not shown) [Example 110, 6-[2-(5-Chloro-2,4-dimethoxyphenyl)ethyl]-6-cyclopentyl-4-hydroxy-3-(1,4,5,6-tetrahydropyrimidin-2-ylthio)-5,6-dihydro-2H-pyran-2-one] the IC50 was under 1 µM.
In the case of O=C1CC(=O)OC(CCc2ccc(C3OCCO3)c(F)c2)(C2CCCC2)C1 (stereo not shown) [Example 78, 6-Cyclopentyl-6-[2-(4-[1,3]dioxolan-2-yl-3-fluoro-phenyl)-ethyl]-dihydro-pyran-2,4-dione], the IC50 is reported as 1 to 10 µM.
CC(C)c1ccc(CCC2(C3CCCC3)CC(=O)CC(=O)O2)cc1 (stereo not shown) [Example 40, 6-Cyclopentyl-6-[2-(4-isopropyl-phenyl)-ethyl]-dihydro-pyran-2,4-dione] showed an IC50 of 1 to 10 µM.
CCOc1cccc(CCC2(C3CCCC3)CC(=O)CC(=O)O2)c1 (stereo not shown) [Example 24, 6-Cyclopentyl-6-[2-(3-ethoxy-phenyl)-ethyl]-dihydro-pyran-2,4-dione] was tested, and the IC50 was 1 to 10 µM.
In the case of COc1ccc(CCC2(C3CCCC3)CC(=O)CC(=O)O2)cc1C (stereo not shown) [Example 29, 6-Cyclopentyl-6-[2-(4-methoxy-3-methyl-phenyl)-ethyl]-dihydro-pyran-2,4-dione], the IC50 is reported as 1 to 10 µM.
For O=C1OC(CCc2ccc(O)cc2)(C2CCCC2)CC(O)=C1Sc1cccc2ccccc12 (stereo not shown) [Example 85, 6-Cyclopentyl-4-hydroxy-6-[2-(4-hydroxyphenyl)ethyl]-3-(naphthalen-1-ylsulfanyl)-5,6-dihydropyran-2-one], the IC50 was 1 to 10 µM.
CC(C)COc1ccc(CCC2(C3CCCC3)CC(=O)CC(=O)O2)cc1F (stereo not shown) [Example 70, 6-Cyclopentyl-6-[2-(3-fluoro-4-isobutoxy-phenyl)-ethyl]-dihydro-pyran-2,4-dione] was tested, and the IC50 was 1 to 10 µM.
In the case of COc1ccc(CCC2(C3CCCC3)CC(=O)C(C(=O)Cc3cccnc3)C(=O)O2)cc1 (stereo not shown) [Example 173, 6-Cyclopentyl-6-[2-(4-methoxy-phenyl)-ethyl]-3-(2-pyridin-3-yl-acetyl)-dihydro-pyran-2,4-dione], the IC50 is reported as 1 to 10 µM.
With COc1cc(OC)c(CCC2(C3CCCC3)CC(O)=C(Cl)C(=O)O2)cc1Cl (stereo not shown) [Example 90] the IC50 was under 1 µM.
O=C1CC(=O)OC(CCc2ccc(N3CCCC3=O)c(F)c2)(C2CCCC2)C1 (stereo not shown) [Example 80, 6-Cyclopentyl-6-{2-[3-fluoro-4-(2-oxo-pyrrolidin-1-yl)-phenyl]-ethyl}-dihydro-pyran-2,4-dione] gave an IC50 of 1 to 10 µM.
COc1ccc(CCC2(C3CCCC3)CC(=O)CC(=O)O2)c(C#N)c1 (stereo not shown) [Example 7, 2-[2-(2-Cyclopentyl-4,6-dioxo-tetrahydro-pyran-2-yl)-ethyl]-5-methoxy-benzonitrile] gave an IC50 of 10 to 50 µM.
For O=C1CC(=O)OC(CCc2ccc(C(=O)N3CCOCC3)cc2)(C2CCCC2)C1 (stereo not shown) [Example 68, 6-Cyclopentyl-6-{2-[4-(morpholine-4-carbonyl)-phenyl]-ethyl}-dihydro-pyran-2,4-dione], the IC50 was over 50 µM.
In the case of CC(C)CCC1(C2CCCC2)CC(O)=CC(=O)O1 (stereo not shown) [Example 151, 6-Cyclopentyl-4-hydroxy-6-(3-methyl-butyl)-5,6-dihydro-pyran-2-one], the IC50 is reported as over 50 µM.
COc1ccc(CCC2(C3CCCC3)CC(O)=C(Sc3nc(O)c4cc[nH]c4n3)C(=O)O2)cc1 (stereo not shown) [Example 113, 6-Cyclopentyl-4-hydroxy-3-[(4-hydroxy-7H-pyrrolo[2,3-d]pyrimidin-2-yl)thio]-6-[2-(4-methoxyphenyl)ethyl]-5,6-dihydro-2H-pyran-2-one] gave an IC50 of under 1 µM.
